Laboratory results from patent US20250034139A1, “AMINE COMPOUNDS HAVING ANTI-INFLAMMATORY, ANTIFUNGAL, ANTIPARASITIC, AND ANTICANCER ACTIVITY” (PHARMA CINQ, LLC, priority 2013, published 2025).
Values after ≈ are worked out from the molar mass of the structure shown. Read-outs that look alike come from different tables or passages of the source.

Experiments:
[1] = system: Aspergillus fumigatus strains; test: Example N: MIC and MFC (CLSI) against Aspergillus fumigatus; format: cell-based; conditions: for MIC50 / MIC: Aspergillus fumigatus; for MIC: read-out: MIC 100%
Description: (§1) The objective of this study was to determine the antifungal activity of eight experimental compounds against a representative panel of fungal isolates, including Candida albicans, C. glabrata, Cryptococcus neoformans, Trichophyton rubrum, Aspergillus fumigatus, and Rhizopus spp. Antifungal activity was measured by minimum inhibitory concentration (MIC) and minimum fungicidal concentration (MFC).
(§2) Three recent clinical strains of each species, taken from the culture collection at the Center for Medical Mycology, Case Western University, were tested.
(§3) Compounds in powder form were dissolved in DMSO. Serial dilutions of each compound were then prepared in RPMI-1640 in a range of […].
(§4) MIC testing was performed according to the CLSI M27-A3 and M38-A2 standards for the susceptibility testing of yeasts and filamentous fungi, respectively (1, 2). Test isolates were subcultured from frozen slants onto potato dextrose agar plates (Trichophyton rubrum was subcultured onto oatmeal plates for conidia production) and checked for purity. Inocula were then prepared in RPMI-1640 (YNB for Cryptococcus) to a concentration of 0.5-2.5×10^3 colony-forming units (CFU)/ml or 0.4-5×10^4 conidia/ml for yeast and filamentous fungi, respectively.
(§5) MFC determinations were performed according to the modifications previously described by Canton et al. and Ghannoum and Isham. (3, 4) Specifically, the total contents of each clear well from the MIC assay were subcultured onto potato dextrose agar. To avoid antifungal carryover, the aliquots were allowed to soak into the agar and then were streaked for isolation once dry, thus removing the cells from the drug source.

[2] = system: THP-1 cells; test: Example C: compound screen, viable THP-1 cell count after 5 hours +/- LPS; format: cell-based, Human
[3] = system: PC3 human prostate cancer cells; test: Example S: in vitro anticancer screen, PC-3 cells, Wst1; format: cell-based; conditions: Homo sapiens, PC-3; 0.4 μM, approximately 20 hours, Wst1; read-out: PC-3, percent of cancer cell survival relative to vehicle treated cells
How it was run: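 PC-3 cells, 2×10^4 cells/well, exposed ~20 h to vehicle or compound at 0.4, 0.5 or 2.5 μM as specified per compound. Wst1 dye added for 2 h; absorbance 450 nm (reference 630 nm), triplicates. Values are percent cell survival versus vehicle-treated cells.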

[4] = system: PC-3 prostate cancer cells; test: Example T: sensitisation of PC-3 cells to doxorubicin, oxaliplatin, paclitaxel or vincristine, Wst1; format: cell-based, human; conditions: PC-3 cells, 72 hours
[5] = system: Cryptococcus neoformans strains; test: Example N: MIC and MFC (CLSI) against Cryptococcus neoformans; format: cell-based; conditions: Cryptococcus neoformans, three clinical strains
Description: as §1, §2, §3, §4, §5

[6] = system: Trichophyton rubrum; test: Example J: Trichophyton rubrum growth inhibition, scoring by eye; format: cell-based; conditions: Trichophyton rubrum, 144 h; 6 days at 30° C., tested 6 to 40 μM; read-out: MIC, μM (maximum inhibition concentration, scoring by eye)
How it was run: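 Filtered T. rubrum suspension from PDA plates (grown 4 days, 30 °C) treated with diluted compounds in triplicate, incubated 6 days at 30 °C. Plates imaged; MIC scored by eye.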

[7] = system: Rhizopus strains; test: Example N: MIC and MFC (CLSI) against Rhizopus; format: cell-based, Rhizopus spp.; conditions: for MIC50 / MIC: Rhizopus; for MIC: read-out: MIC 100%
Description: as §1, §2, §3, §4, §5

[8] = system: Candida glabrata strains; test: Example N: MIC and MFC (CLSI) against Candida glabrata; format: cell-based; conditions: Nakaseomyces glabratus; for MIC: read-out: MIC 100%
Description: as §1, §2, §3, §4, §5

[9] = system: 4T1 murine breast cancer cells; test: Example S: in vitro anticancer screen, 4T1 cells, Wst1; format: cell-based, mouse; conditions: Mus musculus, 4T1, 18 h, 18 hr, Wst1
How it was run: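 4T1 cells seeded at 1×10^4/well were exposed to compound at 1 μM or 5 μM for 18 hr after plating. Wst1 tetrazolium dye was then added for about 2 hr and absorbance read at 450 nm (reference 630 nm). Values are percent survival relative to vehicle-treated cells.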

## CCCCOCCCCCCCCCCNc1ccnc2ccccc12 [AM, N-(10-Butoxydecyl)quinolin-4-amine]
[1]; 3 strains
  cidal activity (MFC within 4 dilutions of the MIC), in words: cidal against one of the A. fumigatus strains (MRL 28397)
[1]; 24 h
  MIC50: 0.5 to 1 µg/mL (≈ 1.4 to 2.8 µM)
  MIC: 1 to 2 µg/mL (≈ 2.8 to 5.61 µM)
[1]; 48 h
  MIC50: 2 to 4 µg/mL (≈ 5.61 to 11.2 µM)
  MIC: 4 µg/mL (≈ 11.2 µM)
[1]; range over Aspergillus fumigatus strains, in 48 hr
  MFC: 4 to 32 µg/mL (≈ 11.2 to 89.7 µM)
[2]; Compound (0.1 μM), No LPS
  Reduction in viable THP-1 cell count (percent change) from 0 hours, Mean ± SE: −5.57 ± 2.67%
[2]; Compound (0.1 μM), Plus LPS
  Reduction in viable THP-1 cell count (percent change) from 0 hours, Mean ± SE: −19.80 ± 1.96%
[2]; Compound (1.0 μM), No LPS
  Reduction in viable THP-1 cell count (percent change) from 0 hours, Mean ± SE: −8.47 ± 3.31%
[2]; Compound (1.0 μM), Plus LPS
  Reduction in viable THP-1 cell count (percent change) from 0 hours, Mean ± SE: −44.05 ± 1.38%
[2]; LPS-treated THP-1 cells
  ability to inactivate pro-inflammatory THP-1 cells, in words (relative to benchmark AC): higher activity than the active benchmark compound AC
[3]
  viability at 0.4 µM: 58.5%
[4]; Homo sapiens, compound 0.4 μM alone, Wst1, vehicle = 100, read-out: No Chemo: percent cell survival
  viability at 0.4 µM: 58.5%
[4]; compound 0.4 μM + doxorubicin 3.5 μM, chemotherapy agent alone normalized to 100%
  Doxorubicin 3.5 μM: percent cell survival: 24.7%
[4]; compound 0.4 μM + oxaliplatin 100 μM, chemotherapy agent alone normalized to 100%
  Oxaliplatin 100 μM: percent cell survival: 25.4%
[4]; compound 0.4 μM + paclitaxel 50 μM, chemotherapy agent alone normalized to 100%
  Paclitaxel 50 μM: percent cell survival: 54.8%
[4]; compound 0.4 μM + vincristine 100 nM, chemotherapy agent alone normalized to 100%
  Vincristine 100 nM: percent cell survival: 26%
[5]; read-out: MIC 100%, Range, incubated for 72 hrs
  MIC: 2 to 4 µg/mL (≈ 5.61 to 11.2 µM)
[5]
  MFC: 8 µg/mL (≈ 22.4 µM)
[6]
  MIC: 12 µM (≈ 4.28 µg/mL)
[7]; 24 h
  MIC50: 1 to 2 µg/mL (≈ 2.8 to 5.61 µM)
  MIC: 2 to 4 µg/mL (≈ 5.61 to 11.2 µM)
[7]; 48 h
  MIC50: 2 to 4 µg/mL (≈ 5.61 to 11.2 µM)
  MIC: 4 µg/mL (≈ 11.2 µM)
[7]; range over Rhizopus strains, in 48 hr
  MFC: 8 to 32 µg/mL (≈ 22.4 to 89.7 µM)
[8]; 24 h
  MIC50: 1 to 2 µg/mL (≈ 2.8 to 5.61 µM)
  MIC: 2 to 4 µg/mL (≈ 5.61 to 11.2 µM)
[8]; 48 h
  MIC50: 2 to 4 µg/mL (≈ 5.61 to 11.2 µM)
  MIC: 2 to 4 µg/mL (≈ 5.61 to 11.2 µM)
[8]; range over Candida glabrata strains, in 48 hr
  MFC: 4 to 8 µg/mL (≈ 11.2 to 22.4 µM)
[9]; 1 μM, read-out: 4T1 1 μM, percent of cancer cell survival relative to vehicle treated cells
  viability at 1 µM: 24.3%
[9]; 5 μM, read-out: 4T1 5 μM, percent of cancer cell survival relative to vehicle treated cells
  viability at 5 µM: 29.5%
